Calls of active or inactive are those of the source. The calls are words filed in the database; no cut-off is given here.
Experiments:
Type in all cases: nucleic-acid assay
[1] = tested on: GC rich DNA; test: Displacement of Ethidium bromide from native ds-GC12 short DNA (unknown origin) by Stern-Volmer quenching plot analysis
[2] = tested on: DNA; test: Induction of GC-rich pYUB12 plasmid DNA (unknown origin) unwinding assessed as DNA structural changes at DNA base-pair to compound ratio of 1:6 incubated for 16 hrs by mobility shift assay
[3] = tested on: GC rich DNA; test: Disruption of native ds-GC12 DNA (unknown origin) base stacking interaction assessed as appearance of ICD at 320 to 330 nm by circular dichroism analysis
[4] = tested on: GC rich DNA; test: Disruption of native ds-GC12 DNA (unknown origin) base stacking interaction assessed as decrease in positive peak intensity at 283 nm by circular dichroism analysis
[5] = tested on: DNA; test: Induction of GC-rich pYUB12 plasmid DNA (unknown origin) unwinding assessed as complete conformational change as condensed form at DNA base-pair to compound ratio of 1:2 incubated for 16 hrs by mobility shift assay
[6] = tested on: Calf thymus DNA; test: Binding affinity to calf thymus DNA assessed as change in enthalpy by isothermal titration calorimetry; settings: Bos taurus
[7] = tested on: GC rich DNA; test: Disruption of native ds-GC12 DNA (unknown origin) base stacking interaction assessed as decrease in positive peak intensity at 283 nm at DNA base-pair to compound ratio of 1:4 by circular dichroism analysis
[8] = tested on: Calf thymus DNA; test: Binding affinity to calf thymus DNA by isothermal titration calorimetry; settings: Bos taurus
[9] = tested on: Calf thymus DNA; test: Binding affinity to calf thymus DNA assessed as change in free energy by isothermal titration calorimetry; settings: Bos taurus
[10] = tested on: Calf thymus DNA; test: Binding affinity to calf thymus DNA assessed as change in entropy by isothermal titration calorimetry; settings: Bos taurus
[11] = tested on: DNA; test: Induction of GC-rich pYUB12 plasmid DNA (unknown origin) unwinding assessed as DNA structural changes at DNA base-pair to compound ratio of 1:4 incubated for 16 hrs by mobility shift assay

Compound | KSV [1] | Activity [2] | Activity [7] | also measured
CN(C)CCCNc1nc2cc([N+](=O)[O-])ccc2nc1NCc1ccncc1 | < 0.3 10^4/M | – | – | –
CN(C)CCCNc1nc2cc([N+](=O)[O-])ccc2nc1NCc1ccc(C#N)cc1 | < 1 10^4/M | Active | – | –
CN(C)CCCNc1nc2cc([N+](=O)[O-])ccc2nc1NCc1ccc(Br)cc1 | 2.8 10^4/M | Active | – | Activity [3]: Active; Activity [4]: Active; Activity [5]: Active
CN(C)CCCNc1nc2cc([N+](=O)[O-])ccc2nc1NCc1ccco1 | < 0.3 10^4/M | – | – | –
CN(C)CCCNc1nc2cc([N+](=O)[O-])ccc2nc1NCc1ccc(O)cc1 | < 1 10^4/M | Active | Active | deltaH [6]: -1.5 kcal/mol; Ka [8]: 3.96 10^4/M; deltaG [9]: -6.38 kcal/mol; TdeltaS [10]: 4.88 kcal/mol
CN(C)CCCNc1nc2cc([N+](=O)[O-])ccc2nc1NCc1ccc(Cl)cc1 | 2.4 10^4/M | – | – | Activity [3]: Active; Activity [4]: Active; Activity [11]: Active
COc1ccc(CNc2nc3ccc([N+](=O)[O-])cc3nc2NCCCN(C)C)cc1 | < 1 10^4/M | Active | Active | –
CN(C)CCCNc1nc2cc([N+](=O)[O-])ccc2nc1NCc1ccc(F)cc1 | 1.26 10^4/M | – | Active | –

Reference: ChEMBL document CHEMBL5154651, “Substituent effect of benzyl moiety in nitroquinoxaline small molecules upon DNA binding: Cumulative destacking of DNA nucleobases leading to histone eviction” (Eur J Med Chem, 2022)
